From patent US10093627B2, “Tetrahydroquinoline derivatives and their use as Epac inhibitors” (Institut National de la Sante et de la Recherche Medicale …, priority 2012, dated 2018)

Experiments:
Epac2(B) = biological target: T1, Epac2(B) (Homo sapiens, UniProt Q8WZA2); assay: In vitro GEF activity (initial velocity of GDP exchange on Rap1A) of Epac2(B); format: biochemical
T1 construct: Human Epac2(B) (amino acids 283-1011) lacks the first 283 amino acids of Epac2; made in house; host or cells: Escherichia coli Rosetta 2(DE3)
T1 sequence (Q8WZA2 283-1011): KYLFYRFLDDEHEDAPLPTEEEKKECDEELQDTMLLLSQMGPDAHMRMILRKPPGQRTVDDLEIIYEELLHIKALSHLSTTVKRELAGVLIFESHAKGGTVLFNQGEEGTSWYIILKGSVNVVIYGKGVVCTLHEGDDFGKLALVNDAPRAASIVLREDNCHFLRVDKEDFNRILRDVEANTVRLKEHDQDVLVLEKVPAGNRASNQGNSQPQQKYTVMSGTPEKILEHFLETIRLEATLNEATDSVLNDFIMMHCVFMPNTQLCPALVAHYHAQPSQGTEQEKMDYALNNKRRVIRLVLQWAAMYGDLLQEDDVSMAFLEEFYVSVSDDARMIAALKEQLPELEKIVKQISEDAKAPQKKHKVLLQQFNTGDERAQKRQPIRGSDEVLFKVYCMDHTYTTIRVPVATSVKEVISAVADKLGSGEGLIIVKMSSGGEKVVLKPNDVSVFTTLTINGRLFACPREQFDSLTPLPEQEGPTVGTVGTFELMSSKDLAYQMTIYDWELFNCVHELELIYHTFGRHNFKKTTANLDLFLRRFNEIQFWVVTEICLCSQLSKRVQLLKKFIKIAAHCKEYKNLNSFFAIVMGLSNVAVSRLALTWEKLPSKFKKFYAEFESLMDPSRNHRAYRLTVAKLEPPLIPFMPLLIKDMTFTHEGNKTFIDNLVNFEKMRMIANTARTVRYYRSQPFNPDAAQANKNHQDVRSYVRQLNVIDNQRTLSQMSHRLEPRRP
Text: Human Epac2(AB) (amino acids 43-1011) carries both the CNB-A and the CNB-B domains. Human Epac2(B) (amino acids 283-1011) lacks the first 283 amino acids of Epac2. It is therefore deleted of its CNB-A and DEP domains, but retains the CNB-B domain and the full catalytic region. Epac2(AB) was obtained by HindIII/NotI restriction and Epac2(B) was obtained by Ssp1/Not1 restriction of a human Epac2A cDNA (a gift from Ann M Graybiel, Department of Brain and Cognitive Sciences, MIT, Cambridge). Both cDNA fragments were inserted into pET41a (Novagen), expressed in Escherichia coli Rosetta 2(DE3) (Novagen), and the GST-tagged fusion proteins were purified by nickel-nitrilotriacetic acid beads (Qiagen), as described in D. Courilleau, et al., Identification of a tetrahydroquinoline analog as a pharmacological inhibitor of the cAMP-binding protein Epac, J. Biol. Chem. 287 (2012) 44192-44202).
In vitro GDP exchange catalyzed by Epac was measured using purified recombinant Epac isoforms and Rap1A loaded with Bodipy-GDP, as described in D. Courilleau, et al (above mentioned). The GEF activity of Epac proteins was initiated by injection of the agonist. Stock solutions of CE3F4 and its analogs (12 mM in 100% DMSO) were kept at −20° C. and were diluted in assay buffer (0.67% final DMSO concentration) just before use for GDP exchange assays. The release of Bodipy-GDP was measured in real time as the decay of fluorescence. A single exponential was fit to the time-course data using the Graphpad Prism program. The initial velocity (Vi) of GDP exchange on Rap1 was calculated as described in D. Courilleau et al.).
Data are expressed as mean±S.D. Differences in quantitative variables were examined by unpaired one- or two-tailed Student's t test. EC50 and IC50 values were computed according to a four-parameters dose-response model and compared on the basis of the extra sum-of square F test, using Graphpad Prism. Two-tailed Wilcoxon matched-pair signed rank tests were performed using GraphPad Prism.

[1] = system: Iso-induced NFAT-Luc transcriptional activation; assay: NFAT-Luc transcriptional activation (Firefly luciferase assay) in neonatal cardiomyocytes; format: cell-based, rat; conditions: CE3F4 20 μM, 30 min pretreatment; Iso 10 μM, 8 h; FIG. 4B
Method: ANF and NFAT promoters were fused to the Firefly luciferase gene (ANF-Luc) (NFAT-Luc) to detect ANF and NFAT by Firefly Luciferase assay (see Materiel and Methods).
Rat neonatal cardiomyocytes were cotransfected with ANF-Luc and Epac1 or empty vector pcDNA3 as control. One day after transfection, cells were pretreated or not with CE3F4 (20 μM) for 30 min and stimulated or not with Iso (10 μM) for 8 h. Cells were then assayed for Luciferase activity. B) Iso-induced NFAT-Luc Transcriptional Activation is Blocked by CE3F4: Neonatal cardiomyocytes were transfected with NFAT-Luc. One day later cells were pretreated or not with CE3F4 (20 μM) for 30 min and stimulated or not with Iso (10 μM) for 8 h. The day after, cells were assayed for Luciferase activity.
Results were normalized to control for each experiment, and were expressed as means±S.E.M of at 4 (FIG. 4A) or 5 (FIG. 4B) independent experiments performed in triplicates.
The rat ANF promoter fused to the Firefly luciferase reporter gene (ANF-Luc) by Dr K. Knowlton, Epac and Rap1 plasmid construct (Epac1^WT) by Drs J. L. Bos and J. de Gunzburg, respectively. The Firefly luciferase reporter plasmid driven by four NFAT consensus binding sites (NFAT-Luc) was purchased from Stratagene. […]
Cells were lysed, and luminescence was detected using the Luciferase Assay System (Promega) according to the manufacturer's instructions with Tecan Infinite.

`CC1CCc2c(cc(Br)c(F)c2Br)N1C=O` (racemic) [CE3F4] was tested, and the “Inhibitory effect on GEF activity of Epac2(B), compared with Epac2(AB)” value (Epac2(B); 50 μM racemic CE3F4, agonist 50 μM 007 or 300 μM cAMP, FIG. 6A) was “no significant difference”, the IC50 (Epac2(B); Epac2(B) activated by 300 μM cAMP) was 66 µM and the “Antagonism of cAMP-activated Epac2(B) GEF activity” value (Epac2(B); compound 30 μM, 300 μM cAMP, FIG. 6C) was “stronger antagonist”. The “Effect on Iso-induced NFAT transcriptional activity” value [1] was “prevented”.
